Test results from the supplement of paper PMC10307832.

Key:
Assay in all cases: relative viability (nuclei count vs DMSO), 5 days (fraction); higher = more cells survive
[1] = compound: C1=CC(=CC=C1C2=CC(=C(S2)NC(=O)N)C(=O)N)F [TPCA-1] + C[C@]1(O)C[C@@H](c2nc(-c3ccc4ccc(-c5ccccc5)nc4c3)c3c(N)nccn32)C1 [Linsitinib] (partner 1 µM)
Summary of the method: (§1)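 For relative viability, nuclei counts in treated wells were divided by those in vehicle wells. Lung cancer cell lines had been pin-tool dosed in 1536-well plates the day after seeding and cultured for 5 days, then fixed and stained in one step (final 0.05% Triton X-100, 1% formaldehyde, 1 ug/ml Hoechst) and imaged at 4×. Doses were one drug alone or a fixed anchor-drug dose plus five library-drug doses (not always all listed) in √10 steps, and values are duplicate-plate medians.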

[2] = compound: C1=CC(=CC=C1C2=CC(=C(S2)NC(=O)N)C(=O)N)F [TPCA-1] + CS(=O)(=O)N1CCN(Cc2cc3nc(-c4cccc5[nH]ncc45)nc(N4CCOCC4)c3s2)CC1 [Pictilisib] (partner 1 µM)
Summary of the method: as §1

[3] = compound: C[C@]12O[C@H](C[C@]1(O)CO)n1c3ccccc3c3c4c(c5c6ccccc6n2c5c31)CNC4=O [Lestaurtinib] + Nc1nc2[nH]cc(CCc3ccc(C(=O)N[C@@H](CCC(=O)O)C(=O)O)cc3)c2c(=O)[nH]1 [Pemetrexed] (partner 0.2 µM)
Summary of the method: as §1

[4] = compound: C[C@]12O[C@H](C[C@]1(O)CO)n1c3ccccc3c3c4c(c5c6ccccc6n2c5c31)CNC4=O [Lestaurtinib] + CC(=O)c1c(C)c2cnc(Nc3ccc(N4CCNCC4)cn3)nc2n(C2CCCC2)c1=O [Palbociclib] (partner 0.5 µM)
Summary of the method: as §1

Row | Cell Line | relative viability ([1]; first compound 0.04 µM) | relative viability ([1]; first compound 0.1265 µM) | relative viability ([1]; first compound 0.4 µM) | relative viability ([1]; first compound 1.265 µM) | relative viability ([1]; first compound 4 µM) | relative viability ([2]; first compound 0.04 µM) | relative viability ([2]; first compound 0.1265 µM) | relative viability ([2]; first compound 0.4 µM) | relative viability ([2]; first compound 1.265 µM) | relative viability ([2]; first compound 4 µM) | relative viability ([3]; first compound 0.005 µM) | relative viability ([3]; first compound 0.01581 µM) | relative viability ([3]; first compound 0.05 µM) | relative viability ([3]; first compound 0.1581 µM) | relative viability ([3]; first compound 0.5 µM) | relative viability ([4]; first compound 0.005 µM) | relative viability ([4]; first compound 0.01581 µM) | relative viability ([4]; first compound 0.05 µM) | relative viability ([4]; first compound 0.1581 µM) | relative viability ([4]; first compound 0.5 µM)
1 | SK-LU-1 | 1.19 | 1.07 | 1.11 | 0.681 | 0.425 | 0.797 | 0.465 | 0.44 | 0.436 | 0.317 | 1 | 0.802 | 0.476 | 0.457 | 0.284 | 0.333 | 0.335 | 0.356 | 0.3 | 0.288
2 | EKVX | 1.1 | 0.868 | 1.08 | 0.69 | 0.846 | 0.405 | 0.343 | 0.512 | 0.374 | 0.43 | 0.419 | – | 0.276 | 0.398 | 0.256 | 0.346 | – | 0.355 | 0.421 | 0.426
3 | HCC-827 | 0.934 | 0.889 | 0.935 | 0.932 | 0.806 | 1.21 | 0.868 | 1.04 | 0.81 | 0.744 | 0.234 | 0.234 | 0.26 | 0.28 | 0.196 | 0.533 | 0.489 | 0.444 | 0.382 | 0.43
4 | NCI-H650 | 1.08 | 0.755 | 0.89 | 0.382 | 0.465 | 0.928 | 0.864 | 1.03 | 0.538 | 0.787 | 0.938 | 1.01 | 0.557 | 0.573 | 0.33 | 0.315 | 0.323 | 0.249 | 0.236 | 0.229
5 | CAL-12T | 0.868 | 0.754 | 0.73 | 0.763 | 0.411 | 0.283 | 0.438 | 0.507 | 0.224 | 0.162 | 1.13 | 1.11 | 1.17 | 0.834 | 0.635 | 0.365 | 0.526 | 0.409 | 0.302 | 0.183
6 | EPLC-272H | 1.3 | 1.09 | 1.33 | 1.03 | 1.01 | 0.381 | 0.285 | 0.341 | 0.38 | 0.32 | 0.308 | 0.349 | 0.452 | 0.189 | 0.0958 | 0.359 | 0.317 | 0.269 | 0.3 | 0.353
7 | A-427 | 1.13 | 1.06 | 1.17 | 1.09 | 1.12 | 0.756 | 0.591 | 0.687 | 0.626 | 0.164 | 0.865 | 1.14 | 0.925 | 0.503 | 0.275 | 0.506 | 0.554 | 0.521 | 0.444 | 0.207
8 | NCI-H647 | 1.11 | 1.07 | 1.1 | 1.05 | 0.694 | 0.494 | 0.283 | 0.42 | 0.236 | 0.217 | 0.187 | 0.162 | 0.183 | 0.119 | 0.064 | 0.382 | 0.201 | 0.227 | 0.247 | 0.164
